Columns and labels:
[1] = hygroscopicity of the crystalline form; assay type: physicochemical
[2] = stability of the crystal form at ambient temperatures; assay type: physicochemical

With `Cc1cc(SCc2sc(-c3ccc(C(F)(F)F)cc3)nc2C)ccc1OCC(=O)O` [Form 7, {2-methyl-4-[4-methyl-2-(4-trifluoromethylphenyl)thiazol-5-ylmethylthio]phenoxy}-acetic acid] the “hygroscopic nature of crystalline form” value [1] was “non-hygroscopic” and the “stability of crystal form” value [2] was “stable”.
